Results from patent publication US10787452B2 (Vertex Pharmaceuticals Incorporated, priority 2012, dated 2020).

System: HCT116 colorectal cancer cells
Assay: Cisplatin sensitization assay (96 h cell viability MTS);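 also: compound concentration needed to lower the Cisplatin-alone IC50 by a set fold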
Type: cell-based
Conditions: 96 h MTS, compound plus Cisplatin
In short: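 HCT116 cells were co-treated with compound and cisplatin, each in 2-fold serial dilutions from a 10 μM top final concentration, as a full matrix. After 96 h at 37 °C, 5% CO2, viability was read by MTS following a 1 h incubation with reagent.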

SMILES	Cisplatin Sensitization Assay
Nc1nn2cc(F)cnc2c1C(=O)Nc1cncc(F)c1N1CCCC1 [I-N-246, 2-amino-6-fluoro-N-(5-fluoro-4-(pyrrolidin-1-yl)pyridin-3-yl)pyrazolo[1,5-a]pyrimidine-3-carboxamide]	++ (Compounds with a Cisplatin sensitization value >0.02 μM but <0.2 μM are marked with “++.”)
Nc1nn2cc(F)cnc2c1C(=O)Nc1cnccc1N1CCN2[C@@H](CCS2(=O)=O)C1 [I-N-247, (S)-2-amino-N-(4-(1,1-dioxidotetrahydro-2H-isothiazolo[2,3-a]pyrazin-5(3H)-yl)pyridin-3-yl)-6-fluoropyrazolo[1,5-a]pyrimidine-3-carboxamide]	+++ (Compounds with a Cisplatin sensitization value of <0.02 μM are marked with “+++.”)
Nc1nn2cc(F)cnc2c1C(=O)Nc1cncc(F)c1N1CCN2C(=O)OC[C@@H]2C1 [I-N-248, (S)-2-amino-6-fluoro-N-(5-fluoro-4-(3-oxotetrahydro-1H-oxazolo[3,4-a]pyrazin-7(3H)-yl)pyridin-3-yl)pyrazolo[1,5-a]pyrimidine-3-carboxamide]	++ (Compounds with a Cisplatin sensitization value >0.02 μM but <0.2 μM are marked with “++.”)
Nc1nn2cc(F)cnc2c1C(=O)Nc1cnccc1N1CCN(C(=O)C2COC2)CC1 [I-N-249]	+++ (Compounds with a Cisplatin sensitization value of <0.02 μM are marked with “+++.”)
Nc1nn2cc(F)cnc2c1C(=O)Nc1cncc(F)c1N1CCS(=O)(=O)CC1 [I-N-250, 2-amino-N-(4-(1,1-dioxidothiomorpholino)-5-fluoropyridin-3-yl)-6-fluoropyrazolo[1,5-a]pyrimidine-3-carboxamide]	++ (Compounds with a Cisplatin sensitization value >0.02 μM but <0.2 μM are marked with “++.”)
CC(=O)N1CC2(CCN(c3ccncc3NC(=O)c3c(N)nn4cc(F)cnc34)CC2)C1 [I-N-251, N-(4-(2-acetyl-2,7-diazaspiro[3.5]nonan-7-yl)pyridin-3-yl)-2-amino-6-fluoropyrazolo[1,5-a]pyrimidine-3-carboxamide]	+++ (Compounds with a Cisplatin sensitization value of <0.02 μM are marked with “+++.”)
CC1(C)CN(c2ccncc2NC(=O)c2c(N)nn3cc(F)cnc23)CCS1(=O)=O [I-N-252, 2-amino-N-(4-(2,2-dimethyl-1,1-dioxidothiomorpholino)pyridin-3-yl)-6-fluoropyrazolo[1,5-a]pyrimidine-3-carboxamide]	+++ (Compounds with a Cisplatin sensitization value of <0.02 μM are marked with “+++.”)
Nc1nn2cc(F)cnc2c1C(=O)Nc1cnccc1N1CCCC2(COC2)C1 [I-N-253, N-(4-(2-oxa-6-azaspiro[3.5]nonan-6-yl)pyridin-3-yl)-2-amino-6-fluoropyrazolo[1,5-a]pyrimidine-3-carboxamide]	+++ (Compounds with a Cisplatin sensitization value of <0.02 μM are marked with “+++.”)
Nc1nn2cc(F)cnc2c1C(=O)Nc1cnccc1N1CCC2(CCNC2)CC1 [I-N-255, N-(4-(2,8-diazaspiro[4.5]decan-8-yl)pyridin-3-yl)-2-amino-6-fluoropyrazolo[1,5-a]pyrimidine-3-carboxamide]	++ (Compounds with a Cisplatin sensitization value >0.02 μM but <0.2 μM are marked with “++.”)
Cc1nnc(N2CCN(c3ccncc3NC(=O)c3c(N)nn4cc(F)cnc34)CC2)o1 [I-N-256, 2-amino-6-fluoro-N-(4-(4-(5-methyl-1,3,4-oxadiazol-2-yl)piperazin-1-yl)pyridin-3-yl)pyrazolo[1,5-a]pyrimidine-3-carboxamide]	++ (Compounds with a Cisplatin sensitization value >0.02 μM but <0.2 μM are marked with “++.”)
CC(=O)N1CCC2(CCN(c3ccncc3NC(=O)c3c(N)nn4cc(F)cnc34)CC2)C1 [I-N-257, N-(4-(2-acetyl-2,8-diazaspiro[4.5]decan-8-yl)pyridin-3-yl)-2-amino-6-fluoropyrazolo[1,5-a]pyrimidine-3-carboxamide]	+++ (Compounds with a Cisplatin sensitization value of <0.02 μM are marked with “+++.”)
